Measured values as given in patent publication US20220096516A1, “OLIGONUCLEOTIDE MOLECULE AND APPLICATION THEREOF IN TUMOR THERAPY” (Ractigen Therapeutics, priority 2019, published 2022).
d = 2'-deoxy (DNA); r = 2'-OH (RNA)

Assays:
[1] = system: Huh7 cells; experiment: Cell viability by CCK-8 method, Huh7; assay type: cell-based, human; conditions: Huh7, 10 nM, 72 h, FIG. 6B
Method: The 290 saRNAs targeting the LHPP promoter were individually transfected into Huh7 cells, and 72 hour later, one-step RT-qPCR was employed to analyze the expression levels of LHPP mRNA and cell viability was detected by the CCK-8 method.
(§1) The cell viability was detected by the following CCK-8 method: the cCells were plated into a 96-well plate at 3-5×10^3 cells/well, cultured overnight, and transfected with the oligonucleotide duplexes. After 72 hour of transfection, 10 uL of CCK-8 solution (Dojindo Molecular Technologies) was added into each well. After 1 hour of incubation at 37° C., a microplate reader was used to measure absorbances at 450 nm.
In order to further evaluate the effect of LHPP saRNAs in inducing the mRNA expression of the LHPP gene and inhibiting the proliferation of cancer cells, eight screened saRNAs (RAG7-132, RAG7-133, RAG7-139, RAG7-177, RAG7-178, RAG7-694, RAG7-707 and RAG7-892) each were transfected into the liver cancer cell lines Huh7 (Medical Cell Resource Center, Tohoku University, Japan), HepG2 (ATCC), Hep3B (ATCC), Li-7 (Medical Cell Resource Center, Tohoku University, Japan) and SK-HEP-1 (ATCC), a lung cancer cell line A549 (ATCC), a bladder cancer cell line T24 (ATCC), a prostatic cancer cell line PC3 (ATCC), and a glioma cell line U87MG (ATCC). The mRNA expression and cell viability of the transfected cells were measured.

[2] = system: HepG2 cells; experiment: Cell viability by CCK-8 method, HepG2; assay type: cell-based, human; conditions: HepG2, 10 nM, 72 h, FIG. 6B
Method: 8 LHPP promoter-targeting saRNAs were individually transfected into liver cancer cells at 10 nM for 72 h. In FIG. 6A, the expression level of LHPP mRNA was analyzed by RT-qPCR. In FIG. 6B, cell viability in the saRNA treatment group was evaluated by the CCK-8 method and recorded as a percentage relative to the viability of cells in a control (Mock) treatment group.
as §1, with “nm. […]” for “nm.”

[3] = system: HepG2 transplanted tumor; experiment: HepG2 transplanted tumor growth in nude mice; design: species or system BALB/c nude mice; conditions: HepG2 xenograft, day 13; saRNA (in vivo-jetPEI) 1 mg/kg intratumor days 1, 4, 7, 10; regorafenib 3 mg/kg intragastric daily day 1-12; vehicle 118%
Method: To prepare the saRNA formulation, the in vivo-jetPEI (201-10G, Polyplus-transfection, France) was adopted as an saRNA delivery system. The preparation process is briefly described as follows. An saRNA was first diluted in 10% glucose solution to obtain a solution A. According to the instructions of the manufacturer, a required amount of in vivo-jetPEI was diluted in 10% glucose solution to obtain a solution B. Equal volumes of the solution A and the solution B were mixed (nitrogen-to-phosphorus ratio: 8; final concentration of glucose: 5%). After mixing, the mixture was let to stand at room temperature for 15 minutes for later use.
HepG2 cells in the logarithmic growth phase were obtained and counted, and then the cell suspension was regulated to 5×10^7 cells/mL and subcutaneously inoculated into the right armpit of BALB/c nude mice at a volume of 0.1 mL per mouse. […] Starting from the initial administration, the long diameter and the short diameter of each tumor were measured with a vernier caliper every two days. The tumor volume was calculated according to the formula V=(l×w^2)/2, wherein 1 represents the longest diameter of the tumor and w represents the diameter parallel to the surface of the tumor and perpendicular to the long diameter. A tumor growth curve and size and morphology of the tumor after anatomy were recorded during the administration.

RAG7-133: saRNA duplex; sense GCUCUUUGUCCGCUGAUCUTT (SEQ ID NO: 1), antisense AGAUCAGCGGACAAAGAGCTT (SEQ ID NO: 165) (sugars from the 5' end r19 d2, backbone not given here)
cell proliferation (cell viability, CCK-8) [1]: inhibited cell proliferation
cell proliferation (cell viability, CCK-8) [2]: inhibited cell proliferation
tumor volume increase compared with that at the beginning of treatment [3]: 34%
